Laboratory results reported in publication PMC5706701, “Development of a homogenous high-throughput assay for inositol hexakisphosphate kinase 1 activity” (PLoS ONE, 2017).
Counter-ions that a name gives are not always drawn. Like-named read-outs stand apart in the source and are kept apart here.

Target: T1, Human IP6K1 (Homo sapiens, UniProt Q92551)
T1 construct: GST (N, cleaved yes); made in house; host or cells: C43 E. coli, pGEX-6P-2
Assay: IP6K1 high-throughput screen of the Sigma LOPAC (ADP-Glo Max, single point);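 also: final compound concentration 10µM in 5% DMSO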
Type: biochemical

[1] = Sigma LOPAC single-point screen, ADP-Glo Max raw signal per well
[2] = Sigma LOPAC single-point screen, Z-score from plate average and StDev
[3] = LOPAC single-point screen, ADP-Glo Max luminescence raw signal per well
[4] = LOPAC single-point screen, Z-score relative to plate average and StDev
[5] = LOPAC single-point screen, ADP-Glo Max raw signal per well
[6] = LOPAC single-point screen, Z-score from raw signal with plate average and StDev
[7] = LOPAC single-point screen, Z-score against plate average and StDev

T1 sequence (Q92551 whole entry): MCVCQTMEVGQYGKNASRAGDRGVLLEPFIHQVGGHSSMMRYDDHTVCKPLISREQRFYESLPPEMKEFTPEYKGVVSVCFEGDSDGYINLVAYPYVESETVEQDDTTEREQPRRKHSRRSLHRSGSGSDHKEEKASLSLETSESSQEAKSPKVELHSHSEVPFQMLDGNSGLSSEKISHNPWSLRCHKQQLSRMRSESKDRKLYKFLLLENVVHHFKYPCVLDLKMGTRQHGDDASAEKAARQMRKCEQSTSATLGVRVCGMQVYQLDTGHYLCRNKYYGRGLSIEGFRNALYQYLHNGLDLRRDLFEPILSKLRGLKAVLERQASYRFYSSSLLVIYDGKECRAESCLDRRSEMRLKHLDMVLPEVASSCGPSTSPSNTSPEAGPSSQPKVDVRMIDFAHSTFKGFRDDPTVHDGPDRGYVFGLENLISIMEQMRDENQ

CCCCS(=N)(=O)CC[C@H](N)C(=O)O (stereo partly drawn) [L-Buthionine-sulfoximine]
Raw Signal [1]: 61284
Z-score [2]: 0.5937

Cc1cc(N)c2ccccc2[n+]1CCCCCCCCCCCCCC[n+]1c(C)cc(N)c2ccccc21 [Dequalinium analog, C-14 linker]
Raw Signal [3]: 52424
Z-score [4]: -0.5571

CN1[C@@H]2CC[C@H]1C[C@@H](OC(c1ccccc1)c1ccccc1)C2 [Benztropine mesylate]
Raw Signal [1]: 60233
Z-score [2]: 0.4086

S=C(Nc1ccccc1)Nc1nccs1 [1-Phenyl-3-(2-thiazolyl)-2-thiourea]
Raw Signal [5]: 53752
Z-score [6]: -0.1078

CC[N+](CC)(CC)CCOc1cccc(OCC[N+](CC)(CC)CC)c1OCC[N+](CC)(CC)CC [Gallamine triethiodide]
Raw Signal [5]: 56632
Z-score [7]: 0.2975

CC(=O)N1CCN(c2ccc(OCC3COC(Cn4ccnc4)(c4ccc(Cl)cc4Cl)O3)cc2)CC1 (stereo not shown) [Ketoconazole]
Raw Signal [3]: 49591
Z-score [4]: -0.8069

CC(C)CC(NC(=O)C1OC1C(=O)O)C(=O)NCCCCNC(=N)N (stereo not shown) [E-64]
Raw Signal [1]: 60196
Z-score [2]: 1.021

CC(=O)[C@H]1CC[C@H]2[C@@H]3CC[C@H]4C[C@H](O)CC[C@]4(C)[C@H]3C(=O)C[C@]12C [5alpha-Pregnan-3alpha-ol-11,20-dione]
Raw Signal [1]: 56964
Z-score [2]: 0.4319

O=c1c2ccccc2nc2n1CCc1c-2[nH]c2ccccc12 [Rutaecarpine]
Raw Signal [5]: 54118
Z-score [6]: -0.3703

Clc1ccc(C(c2ccc(Cl)cc2)n2cc[n+](CC(OCc3ccc(Cl)cc3Cl)c3ccc(Cl)cc3Cl)c2)cc1 (stereo not shown) [Calmidazolium chloride]
Raw Signal [5]: 57343
Z-score [6]: -0.1004

Br.Br.N=C(N)SCCc1cccc(CCSC(=N)N)c1 [1,3-PBIT dihydrobromide]
Raw Signal [1]: 61855
Z-score [2]: 1.133

CC(N)(Cc1ccc(O)c(O)c1)C(=O)O (racemic)
Raw Signal [3]: 41540
Z-score [4]: -2.16

CCn1cc(C(=O)[O-])c(=O)c2ccc(C)nc21.[Na+] [Nalidixic acid sodium]
Raw Signal [3]: 49665
Z-score [4]: -0.7945

NCCc1c[nH]cn1 [Histamine dihydrochloride]
Raw Signal [3]: 51759
Z-score [4]: -0.6921

CCCN1CCc2cccc3c2[C@H]1Cc1ccc(O)c(O)c1-3.Cl [R(-)-Propylnorapomorphine hydrochloride]
Raw Signal [3]: 49804
Z-score [4]: -1.089

COc1cc(CC(=O)O)ccc1O [4-Hydroxy-3-methoxyphenylacetic acid]
Raw Signal [1]: 58602
Z-score [2]: 0.6976

NCCCNCCCCNCCCN [Spermine tetrahydrochloride]
Raw Signal [3]: 52988
Z-score [4]: -0.5898

CN(C)CCC=C1c2ccccc2CCc2ccccc21 [Amitriptyline hydrochloride]
Raw Signal [3]: 54808
Z-score [4]: -0.5469

O=[N+]([O-])c1cccc2cn[nH]c12 [7-Nitroindazole]
Raw Signal [5]: 55532
Z-score [7]: 0.1913

CC[N+](C)(C)c1cccc(O)c1 [Edrophonium chloride]
Raw Signal [1]: 58129
Z-score [2]: 0.6015

NCCCS(=O)(=O)O.[Na] [3-Amino-1-propanesulfonic acid sodium]
Raw Signal [3]: 52858
Z-score [4]: -0.8903

C[N+]1(C)C2CCC1CC(OC(=O)c1c[nH]c3ccccc13)C2.[I-] (stereo not shown)
Raw Signal [3]: 66909
Z-score (LOPAC single-point screen, Z-score from plate average and StDev): 2.115

COc1cccc2c1[C@@H]1CN(CCCCn3c(=O)[nH]c4c(sc5ncc(-c6ccccc6)nc54)c3=O)C[C@@H]1CO2 [Fiduxosin hydrochloride]
Raw Signal [5]: 56814
Z-score [7]: 0.3345

NCC(CC(=O)O)c1ccc(Cl)cc1 (racemic) [(±)-Baclofen]
Raw Signal [1]: 65373
Z-score [2]: 1.3139

C#CCN(C)CCCOc1ccc(Cl)cc1Cl [Clorgyline hydrochloride]
Raw Signal [3]: 50699
Z-score [4]: -0.6208

CCCn1c(=O)c2[nH]c(C3CCCC3)nc2n(CCCOC(=O)c2ccc(S(=O)(=O)F)cc2)c1=O [FSCPX]
Raw Signal [3]: 51325
Z-score [4]: -0.7803

CCN(CC)CCNC(=O)c1cc(Cl)c(N)cc1OC.Cl [Metoclopramide hydrochloride]
Raw Signal [5]: 53948
Z-score [7]: -0.07486

CC(C)NCC(O)c1ccc(O)c(O)c1.Cl (single isomer, unassigned; (-)) [(-)-Isoproterenol hydrochloride]
Raw Signal [3]: 50939
Z-score [4]: -0.5804

O=C(O)CC[N+](=O)[O-] [3-Nitropropionic acid]
Raw Signal [5]: 53138
Z-score [6]: -0.211

Cc1nc2n(c(=O)c1CCN1CCC(c3noc4cc(F)ccc34)CC1)CCCC2 [Risperidone]
Raw Signal [3]: 53532
Z-score [4]: -0.4841

C=CCN1CC[C@]2(C)c3cc(O)ccc3C[C@H]1[C@H]2C.Cl [(+)-N-Allylnormetazocine hydrochloride]
Raw Signal [3]: 54138
Z-score [4]: -0.6649

CNc1ncnc2c1ncn2[C@H]1C[C@H](OP(=O)(O)O)[C@@H](COP(=O)(O)O)O1 [MRS 2179]
Raw Signal [3]: 51414
Z-score [4]: -0.5006

CC[C@H](C)C(=O)O[C@H]1CCC=C2C=C[C@H](C)[C@H](CC[C@@H]3C[C@@H](O)CC(=O)O3)[C@H]21 [Mevastatin]
Raw Signal [3]: 50064
Z-score [4]: -0.7275

O=C(O)CCCc1ccc(N(CCCl)CCCl)cc1 [Chlorambucil]
Raw Signal [5]: 57590
Z-score [7]: -0.05691

CCCCN1CCC(COC(=O)c2cc(Cl)c(N)c3c2OCCO3)CC1.Cl [SB 204070 hydrochloride]
Raw Signal [1]: 60689
Z-score [2]: 0.9064

CCCn1c(=O)c2[nH]c(-c3ccc(S(=O)(=O)O)cc3)nc2n(CCC)c1=O [1,3-Dipropyl-8-p-sulfophenylxanthine]
Raw Signal [3]: 54862
Z-score [4]: -0.5374

CC(CN(C)C)CN1c2ccccc2CCc2ccccc21 (stereo not shown) [Trimipramine maleate]
Raw Signal [3]: 53117
Z-score [4]: -0.5647

CC(C)(C)c1ccc(S(=O)(=O)/C=C/C#N)cc1 [Bay 11-7085]
Raw Signal [5]: 58167
Z-score [7]: 0.04472

Cl.O=c1[nH]oc2c1CCNC2 [THIP hydrochloride]
Raw Signal [1]: 60339
Z-score [2]: 0.8384

Oc1ccc2c3c1O[C@H]1[C@@H](O)CC[C@@]4(O)[C@@H](C2)N(CC2CCC2)CC[C@]314 [Nalbuphine hydrochloride]
Raw Signal: 53889
Z-score: -0.08477

O=C1O/C(=C/Br)CCC1c1cccc2ccccc12 (stereo not shown) [Bromoenol lactone]
Raw Signal [3]: 52508
Z-score [4]: -0.952

NN=C(N)N.NN=C(N)N.O=S(=O)(O)O [Aminoguanidine hemisulfate]
Raw Signal [5]: 58107
Z-score [7]: 0.03415

Cl.NNC(N)=O [Semicarbazide hydrochloride]
Raw Signal [5]: 55828
Z-score [7]: -0.03804

CCCN(CC1CC1)c1nc(C)nc(Nc2c(Cl)cc(Cl)cc2Cl)c1Cl [NBI 27914]
Raw Signal [3]: 52610
Z-score [4]: -0.5193

Nn1nnc2ccccc21 [1-Aminobenzotriazole]
Raw Signal [3]: 53212
Z-score [4]: -0.828

c1ccc(-c2ccccn2)nc1 [2,2 -Bipyridyl]
Raw Signal [5]: 56711
Z-score [7]: 0.3136

CCCN1C[C@H](CSC)C[C@@H]2c3cccc4[nH]cc(c34)C[C@H]21 [Pergolide methanesulfonate]
Raw Signal [5]: 53757
Z-score [6]: -0.4404

CN1CCN(CC(=O)N2c3ccccc3C(=O)Nc3cccnc32)CC1 [Pirenzepine dihydrochloride]
Raw Signal [1]: 62871
Z-score [2]: 1.33

CC(C)C[C@H](NP(=O)([O-])O[C@H]1O[C@H](C)[C@@H](O)[C@H](O)[C@@H]1O)C(=O)N[C@@H](Cc1c[nH]c2ccccc12)C(=O)[O-].[Na+].[Na+] [Phosphoramidon disodium]
Raw Signal [5]: 56521
Z-score [7]: 0.0966

COc1cc2c(cc1OC)-c1c/c(=N\c3c(C)cc(C)cc3C)n(C)c(=O)n1CC2 [Trequinsin hydrochloride]
Raw Signal [5]: 54369
Z-score [6]: -0.3215

NC(=O)c1ncn([C@@H]2O[C@H](CO)[C@@H](O)[C@H]2O)n1 [Ribavirin]
Raw Signal [5]: 54731
Z-score [6]: -0.2512

O=C(O)/C(=C/c1c(C(=O)O)[nH]c2cc(Cl)cc(Cl)c12)c1ccccc1 [MDL 105,519]
Z-score: 0.03839

NC(=O)c1cnccn1 [Pyrazinecarboxamide]
Raw Signal [1]: 58526
Z-score [2]: 0.4861

Clc1ccc2c(c1)C(N1CCNCC1)=Nc1ccccc1O2 [Amoxapine]
Raw Signal [3]: 50961
Z-score [4]: -1.224

C[C@]12CC[C@@H](O)C[C@@H]1CC[C@@H]1[C@@H]2CC[C@]2(C)[C@@H](C(=O)CO)CC[C@@H]12
Raw Signal [5]: 54259
Z-score [7]: -0.0226

COc1ccc(CNC(=O)/C=C/c2ccc3[nH]cc(CCN(C)C)c3c2)cc1 [GR 4661]
Raw Signal [3]: 54448
Z-score [4]: -0.6103

c1ccc2c(CC3=NCCN3)cccc2c1 [Naphazoline hydrochloride]
Raw Signal [5]: 52798
Z-score [6]: -0.2681

Cn1c(=O)c2[nH]c(C3CCCC3)nc2n(C)c1=O [8-Cyclopentyl-1,3-dimethylxanthine]
Raw Signal [1]: 58283
Z-score [2]: 0.6328

CC(C)(Sc1ccc(CCN(CCCCC2CCCCC2)C(=O)NC2CCCCC2)cc1)C(=O)O [GW7647]
Raw Signal [3]: 52814
Z-score [4]: -0.4779

NC(N)=NCCCCN=C(N)N [Arcaine sulfate]
Raw Signal [5]: 57202
Z-score [6]: -0.1252

O=C1CC2(CCCC2)CC(=O)N1CCCCN1CCN(c2ncccn2)CC1 [Buspirone hydrochloride]
Raw Signal [1]: 60893
Z-score [2]: 0.5248
